Data on one substance can be found in patent US12270064B2, “Peptide for complexing zinc ion, complex thereof and use therefor” (Guangzhou University, priority 2020, dated 2025).

No end group written: not given here.

A short description of the assay: Complexing rate / complexing ability of zinc ion of soybean peptide fractions. The assay is classed as binding. Particulars: HPLC separation of F2, FIG. 2.

Consider “KYKRQRW [F21, single peptide component purified by HPLC from F2; also made by solid phase peptide synthesis]”, for which the “complexing ability with zinc ion, ranking among HPLC fractions” value is “strongest complexing ability with zinc ion”.
